Experimental data published in ChEMBL document CHEMBL3822415, “Toward the Validation of Maternal Embryonic Leucine Zipper Kinase: Discovery, Optimization of Highly Potent and Selective Inhibitors, and Preliminary Biology Insight” (J Med Chem, 2016).
Converted amounts (≈) assume the structure as drawn.

Columns and labels:
[1] = molecular target: T1, Maternal embryonic leucine zipper kinase (Homo sapiens, UniProt Q14680); assay: Inhibition of MELK catalytic domain (unknown origin) preincubated for 20 mins followed by addition of KinEASE STK S1 peptide as substrate in presence of 20 uM ATP measured after 20 mins by time-resolved fluorescence assay
T1 sequence (Q14680 whole entry, the tested form may be a part): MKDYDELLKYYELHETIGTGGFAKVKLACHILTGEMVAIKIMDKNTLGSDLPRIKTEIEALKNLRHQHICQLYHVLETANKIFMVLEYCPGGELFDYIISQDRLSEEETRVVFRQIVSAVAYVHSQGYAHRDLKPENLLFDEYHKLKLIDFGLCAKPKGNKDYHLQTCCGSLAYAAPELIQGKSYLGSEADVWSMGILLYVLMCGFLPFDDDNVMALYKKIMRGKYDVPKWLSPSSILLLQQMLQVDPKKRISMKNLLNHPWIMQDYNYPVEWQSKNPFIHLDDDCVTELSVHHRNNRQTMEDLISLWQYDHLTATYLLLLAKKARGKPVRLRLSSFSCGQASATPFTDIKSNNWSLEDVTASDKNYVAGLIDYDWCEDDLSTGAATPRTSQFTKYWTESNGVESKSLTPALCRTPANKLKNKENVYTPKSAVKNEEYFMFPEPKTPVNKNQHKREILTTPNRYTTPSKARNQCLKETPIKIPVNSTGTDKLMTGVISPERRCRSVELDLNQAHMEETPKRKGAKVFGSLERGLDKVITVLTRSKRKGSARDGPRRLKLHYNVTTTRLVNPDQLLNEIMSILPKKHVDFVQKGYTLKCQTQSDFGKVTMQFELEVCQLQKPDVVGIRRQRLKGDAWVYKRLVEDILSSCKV

[2] = molecular target: T1, Maternal embryonic leucine zipper kinase; assay: Inhibition of MELK catalytic domain (unknown origin) preincubated for 20 mins followed by addition of KinEASE STK S1 peptide as substrate in presence of 2 mM ATP measured after 20 mins by time-resolved fluorescence assay
[3] = test system: MCF7; assay: Antiproliferative activity against MELK-independent ER-positive human MCF7 cells assessed as reduction in cell viability after 7 days by CellTiter-Glo assay; settings: MCF7, 168 h
[4] = test system: MDA-MB-468; assay: Antiproliferative activity against MELK-dependent human MDA-MB-468 cells assessed as reduction in cell viability after 7 days by CellTiter-Glo assay; settings: MDA-MB-468, 168 h
[5] = molecular target: T2, Platelet-derived growth factor receptor alpha (Homo sapiens, UniProt P16234); assay: Inhibition of PDGFR-alpha (unknown origin)
T2 sequence (P16234 whole entry): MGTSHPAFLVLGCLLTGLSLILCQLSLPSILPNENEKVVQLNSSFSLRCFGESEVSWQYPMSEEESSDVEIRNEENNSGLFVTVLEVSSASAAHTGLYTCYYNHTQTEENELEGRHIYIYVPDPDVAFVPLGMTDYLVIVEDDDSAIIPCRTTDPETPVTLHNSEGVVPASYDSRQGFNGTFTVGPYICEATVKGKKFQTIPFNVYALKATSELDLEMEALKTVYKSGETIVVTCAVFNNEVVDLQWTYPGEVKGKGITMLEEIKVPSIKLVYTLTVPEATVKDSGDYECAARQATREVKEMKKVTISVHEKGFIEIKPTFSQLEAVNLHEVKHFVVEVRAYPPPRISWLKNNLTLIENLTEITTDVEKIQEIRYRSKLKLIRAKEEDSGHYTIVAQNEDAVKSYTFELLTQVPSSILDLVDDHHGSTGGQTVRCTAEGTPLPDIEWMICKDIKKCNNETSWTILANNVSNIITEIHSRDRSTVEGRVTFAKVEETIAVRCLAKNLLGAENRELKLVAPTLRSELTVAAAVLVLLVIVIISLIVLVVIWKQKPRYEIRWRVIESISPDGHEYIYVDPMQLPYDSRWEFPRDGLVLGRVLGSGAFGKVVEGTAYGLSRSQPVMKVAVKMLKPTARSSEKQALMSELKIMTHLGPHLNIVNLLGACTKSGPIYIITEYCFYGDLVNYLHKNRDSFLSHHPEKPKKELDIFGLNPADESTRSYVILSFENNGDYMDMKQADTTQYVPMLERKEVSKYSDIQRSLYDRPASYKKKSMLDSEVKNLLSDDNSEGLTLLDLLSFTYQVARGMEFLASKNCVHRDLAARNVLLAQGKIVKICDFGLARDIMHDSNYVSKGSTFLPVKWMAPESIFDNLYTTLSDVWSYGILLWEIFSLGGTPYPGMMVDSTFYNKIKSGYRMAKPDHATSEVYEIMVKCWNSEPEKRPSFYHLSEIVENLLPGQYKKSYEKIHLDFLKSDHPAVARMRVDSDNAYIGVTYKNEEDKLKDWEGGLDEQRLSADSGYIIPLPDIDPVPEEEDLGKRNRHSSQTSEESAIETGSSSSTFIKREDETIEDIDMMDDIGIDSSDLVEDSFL

[6] = molecular target: T3, Receptor-type tyrosine-protein kinase FLT3 (Homo sapiens, UniProt P36888); assay: Inhibition of FLT3 (unknown origin)
T3 sequence (P36888 whole entry): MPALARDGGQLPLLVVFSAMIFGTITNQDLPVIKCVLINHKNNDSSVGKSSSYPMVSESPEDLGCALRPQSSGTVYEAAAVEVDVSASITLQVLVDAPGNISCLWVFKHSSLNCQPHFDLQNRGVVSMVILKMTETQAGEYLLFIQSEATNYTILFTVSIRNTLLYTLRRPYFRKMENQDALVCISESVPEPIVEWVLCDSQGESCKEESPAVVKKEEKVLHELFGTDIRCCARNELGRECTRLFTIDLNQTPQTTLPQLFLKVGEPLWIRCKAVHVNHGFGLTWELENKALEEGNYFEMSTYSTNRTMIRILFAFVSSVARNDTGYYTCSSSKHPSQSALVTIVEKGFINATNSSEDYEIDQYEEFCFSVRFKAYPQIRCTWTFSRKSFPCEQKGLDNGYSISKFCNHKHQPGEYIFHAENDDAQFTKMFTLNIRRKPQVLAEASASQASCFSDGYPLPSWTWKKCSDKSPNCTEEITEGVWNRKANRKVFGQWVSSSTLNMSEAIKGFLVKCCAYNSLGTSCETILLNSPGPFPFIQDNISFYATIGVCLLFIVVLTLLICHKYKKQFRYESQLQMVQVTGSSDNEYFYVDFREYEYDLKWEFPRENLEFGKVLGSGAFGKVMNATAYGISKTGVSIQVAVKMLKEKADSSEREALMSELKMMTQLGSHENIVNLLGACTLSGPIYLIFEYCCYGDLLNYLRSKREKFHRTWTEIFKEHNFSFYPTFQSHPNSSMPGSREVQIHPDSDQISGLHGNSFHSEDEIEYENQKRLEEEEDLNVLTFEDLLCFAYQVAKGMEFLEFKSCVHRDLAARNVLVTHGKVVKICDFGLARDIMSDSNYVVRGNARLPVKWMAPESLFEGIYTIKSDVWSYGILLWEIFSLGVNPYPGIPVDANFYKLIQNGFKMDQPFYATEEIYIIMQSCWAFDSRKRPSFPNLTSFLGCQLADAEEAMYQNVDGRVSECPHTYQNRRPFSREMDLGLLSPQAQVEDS

[7] = molecular target: Mitogen-activated protein kinase kinase kinase kinase 4 (Homo sapiens, UniProt O95819); assay: Inhibition of MAP4K4 (unknown origin)
Mitogen-activated protein kinase kinase kinase kinase 4, sequence (O95819 whole entry): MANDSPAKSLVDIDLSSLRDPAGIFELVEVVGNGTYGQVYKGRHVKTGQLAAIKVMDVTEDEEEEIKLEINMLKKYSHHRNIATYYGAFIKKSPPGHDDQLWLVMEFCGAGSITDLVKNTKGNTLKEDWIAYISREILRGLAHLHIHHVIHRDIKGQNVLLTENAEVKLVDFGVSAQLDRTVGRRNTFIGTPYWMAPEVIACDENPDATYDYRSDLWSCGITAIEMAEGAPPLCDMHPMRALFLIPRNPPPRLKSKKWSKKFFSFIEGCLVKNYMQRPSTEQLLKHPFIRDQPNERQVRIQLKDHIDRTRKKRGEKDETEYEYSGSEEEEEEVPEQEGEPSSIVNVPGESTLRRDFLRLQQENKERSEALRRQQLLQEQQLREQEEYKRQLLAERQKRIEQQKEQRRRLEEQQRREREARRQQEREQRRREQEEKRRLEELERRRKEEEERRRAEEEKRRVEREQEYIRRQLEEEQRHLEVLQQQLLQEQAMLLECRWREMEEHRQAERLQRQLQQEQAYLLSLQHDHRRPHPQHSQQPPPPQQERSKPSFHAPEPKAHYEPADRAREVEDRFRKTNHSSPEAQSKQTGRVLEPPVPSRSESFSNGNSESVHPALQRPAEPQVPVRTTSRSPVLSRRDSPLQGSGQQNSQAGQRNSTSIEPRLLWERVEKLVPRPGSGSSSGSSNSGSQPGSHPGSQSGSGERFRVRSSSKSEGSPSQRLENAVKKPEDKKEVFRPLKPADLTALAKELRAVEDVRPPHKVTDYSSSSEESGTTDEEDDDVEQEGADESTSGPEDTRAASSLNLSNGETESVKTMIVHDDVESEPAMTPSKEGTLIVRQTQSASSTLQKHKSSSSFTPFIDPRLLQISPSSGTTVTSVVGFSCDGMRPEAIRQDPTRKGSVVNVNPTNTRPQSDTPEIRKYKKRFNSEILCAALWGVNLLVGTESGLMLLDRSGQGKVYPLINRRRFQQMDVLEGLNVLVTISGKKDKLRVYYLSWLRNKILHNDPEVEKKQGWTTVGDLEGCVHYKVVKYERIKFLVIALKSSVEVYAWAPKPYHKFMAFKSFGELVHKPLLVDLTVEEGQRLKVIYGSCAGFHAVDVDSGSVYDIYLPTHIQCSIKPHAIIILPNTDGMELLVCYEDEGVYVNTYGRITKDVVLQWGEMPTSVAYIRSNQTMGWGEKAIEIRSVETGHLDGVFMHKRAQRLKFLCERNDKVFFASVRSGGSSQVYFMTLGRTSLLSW

[8] = AUC (0 to 7 hrs) in C57BL/6 mouse at 1 mg/kg, iv by LC-MS/MS analysis; assay type: ADME, organism-based; parameters: time < 7 hr, dose 1 mg/kg, route intravenous; settings: in vivo
[9] = molecular target: Receptor-type tyrosine-protein kinase FLT3 (Homo sapiens, UniProt P36888, ITD); assay: Inhibition of partial-length human FLT3 ITD mutant expressed in bacterial expression system by KINOMEscan assay
[10] = Clearance in C57BL/6 mouse at 1 mg/kg, iv by LC-MS/MS analysis; assay type: ADME, organism-based; settings: in vivo
[11] = Volume of distribution at steady state in C57BL/6 mouse at 1 mg/kg, iv by LC-MS/MS analysis; assay type: ADME, organism-based; settings: in vivo, read-out: Vdss
[12] = Cmax in C57BL/6 mouse at 30 mg/kg, sc by LC-MS/MS analysis; assay type: ADME, organism-based; parameters: dose 30 mg/kg, route subcutaneous; settings: in vivo
[13] = molecular target: T4, Serine/threonine-protein kinase haspin (Homo sapiens, UniProt Q8TF76); assay: Inhibition of partial-length human wild type HASPIN expressed in mammalian expression system by KINOMEscan assay
T4 sequence (Q8TF76 whole entry): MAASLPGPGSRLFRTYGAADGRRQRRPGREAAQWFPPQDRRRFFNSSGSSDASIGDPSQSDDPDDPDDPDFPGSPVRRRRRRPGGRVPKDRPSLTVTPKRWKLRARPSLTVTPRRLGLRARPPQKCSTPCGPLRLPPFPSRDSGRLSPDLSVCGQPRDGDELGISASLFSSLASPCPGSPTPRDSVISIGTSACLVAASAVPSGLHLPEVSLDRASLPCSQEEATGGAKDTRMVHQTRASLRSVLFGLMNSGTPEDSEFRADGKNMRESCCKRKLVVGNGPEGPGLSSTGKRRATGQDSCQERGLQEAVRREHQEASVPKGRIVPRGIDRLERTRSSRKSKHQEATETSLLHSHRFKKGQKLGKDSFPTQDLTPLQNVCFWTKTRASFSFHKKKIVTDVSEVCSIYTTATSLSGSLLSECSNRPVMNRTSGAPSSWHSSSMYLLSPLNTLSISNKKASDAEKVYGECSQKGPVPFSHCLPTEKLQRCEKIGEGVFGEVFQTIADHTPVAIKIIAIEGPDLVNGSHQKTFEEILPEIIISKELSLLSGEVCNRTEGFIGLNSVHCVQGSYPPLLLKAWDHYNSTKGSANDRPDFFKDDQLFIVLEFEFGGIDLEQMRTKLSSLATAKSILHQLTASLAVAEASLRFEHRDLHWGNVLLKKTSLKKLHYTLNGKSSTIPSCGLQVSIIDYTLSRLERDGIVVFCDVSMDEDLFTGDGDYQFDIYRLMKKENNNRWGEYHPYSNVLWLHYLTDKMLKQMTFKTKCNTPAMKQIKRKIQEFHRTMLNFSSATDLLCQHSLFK

[14] = test system: Plasma; assay: Drug uptake in plasma of athymic nude mouse at 120 mg/kg, sc bid; assay type: ADME, organism-based; settings: in vivo
[15] = Half life of the compound; assay type: physicochemical
[16] = AUC (0 to 7 hrs) in C57BL/6 mouse at 10 mg/kg, po by LC-MS/MS analysis; assay type: ADME, organism-based; parameters: time < 7 hr, dose 10 mg/kg, route oral; settings: in vivo
[17] = test system: Plasma; assay: Metabolic stability in mouse plasma measured after 4 hrs; assay type: ADME, cell-free
[18] = test system: Plasma; assay: Drug uptake in plasma of athymic nude mouse at 120 to 240 mg/kg, sc qd; assay type: ADME, organism-based; settings: in vivo
[19] = Apparent permeability across apical to basolateral side in human Caco2 cells; assay type: ADME, cell-based; settings: Caco-2
[20] = molecular target: Mast/stem cell growth factor receptor Kit (Homo sapiens, UniProt P10721, A829P); assay: Inhibition of partial-length human KIT A829P mutant expressed in mammalian expression system by KINOMEscan assay
Mast/stem cell growth factor receptor Kit, sequence (P10721 26-976 A829P limits assumed): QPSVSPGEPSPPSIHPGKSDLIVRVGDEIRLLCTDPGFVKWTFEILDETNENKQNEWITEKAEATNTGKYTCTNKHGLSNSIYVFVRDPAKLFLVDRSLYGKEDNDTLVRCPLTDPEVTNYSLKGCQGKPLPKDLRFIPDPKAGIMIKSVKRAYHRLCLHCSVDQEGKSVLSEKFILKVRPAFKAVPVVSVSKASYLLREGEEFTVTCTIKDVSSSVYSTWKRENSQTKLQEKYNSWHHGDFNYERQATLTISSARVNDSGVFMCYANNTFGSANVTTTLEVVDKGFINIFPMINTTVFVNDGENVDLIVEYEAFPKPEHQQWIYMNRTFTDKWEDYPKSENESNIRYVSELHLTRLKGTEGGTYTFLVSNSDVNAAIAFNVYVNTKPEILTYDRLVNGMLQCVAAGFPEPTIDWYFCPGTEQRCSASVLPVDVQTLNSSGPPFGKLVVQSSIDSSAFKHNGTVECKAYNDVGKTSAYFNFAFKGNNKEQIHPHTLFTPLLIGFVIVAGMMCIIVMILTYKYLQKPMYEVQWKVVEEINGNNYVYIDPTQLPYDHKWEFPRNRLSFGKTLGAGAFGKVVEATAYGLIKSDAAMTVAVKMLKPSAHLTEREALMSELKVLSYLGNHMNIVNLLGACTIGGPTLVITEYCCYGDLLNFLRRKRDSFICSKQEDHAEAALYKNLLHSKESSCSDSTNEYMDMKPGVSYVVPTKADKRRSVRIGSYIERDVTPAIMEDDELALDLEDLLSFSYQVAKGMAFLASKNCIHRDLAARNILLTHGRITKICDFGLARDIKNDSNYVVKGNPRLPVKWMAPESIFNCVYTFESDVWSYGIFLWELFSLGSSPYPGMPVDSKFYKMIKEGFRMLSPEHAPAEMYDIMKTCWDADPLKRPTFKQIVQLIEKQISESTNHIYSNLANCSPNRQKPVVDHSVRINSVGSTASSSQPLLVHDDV

[21] = Solubility of the compound at pH 6.8; assay type: physicochemical; settings: buffer
[22] = AUC (0 to 7 hrs) in C57BL/6 mouse at 30 mg/kg, sc by LC-MS/MS analysis; assay type: ADME, organism-based; parameters: dose 30 mg/kg, time < 7 hr, route subcutaneous; settings: in vivo
[23] = molecular target: T1, Maternal embryonic leucine zipper kinase; assay: Binding affinity to MELK (unknown origin) expressed in Escherichia coli by SPR analysis
[24] = Tmax in C57BL/6 mouse at 30 mg/kg, sc by LC-MS/MS analysis; assay type: ADME, organism-based; settings: in vivo
[25] = molecular target: T1, Maternal embryonic leucine zipper kinase; assay: Inhibition of full-length MELK (unknown origin) preincubated for 20 mins followed by addition of KinEASE STK S1 peptide as substrate in presence of 20 uM ATP measured after 20 mins by time-resolved fluorescence assay
[26] = Cmax in C57BL/6 mouse at 10 mg/kg, po by LC-MS/MS analysis; assay type: ADME, organism-based; parameters: dose 10 mg/kg, route oral; settings: in vivo
[27] = molecular target: T2, Platelet-derived growth factor receptor alpha; assay: Inhibition of partial-length human wild type PDGFR-alpha expressed in mammalian expression system by KINOMEscan assay
[28] = Extraction ratio in mouse microsomes; assay type: ADME, Microsome
[29] = Oral bioavailability in C57BL/6 mouse at 10 mg/kg by LC-MS/MS analysis; assay type: ADME, organism-based; settings: in vivo
[30] = Tmax in C57BL/6 mouse at 10 mg/kg, po by LC-MS/MS analysis; assay type: ADME, organism-based; settings: in vivo
[31] = Tmax in C57BL/6 mouse at 5 mg/kg, po by LC-MS/MS analysis; assay type: ADME, organism-based; settings: in vivo
[32] = AUC (0 to 7 hrs) in C57BL/6 mouse at 5 mg/kg, po by LC-MS/MS analysis; assay type: ADME, organism-based; parameters: dose 5 mg/kg, time < 7 hr, route oral; settings: in vivo
[33] = Cmax in C57BL/6 mouse at 5 mg/kg, po by LC-MS/MS analysis; assay type: ADME, organism-based; parameters: dose 5 mg/kg, route oral; settings: in vivo
[34] = Oral bioavailability in C57BL/6 mouse at 5 mg/kg by LC-MS/MS analysis; assay type: ADME, organism-based; settings: in vivo

CC(C)COc1cnccc1-c1cnn(-c2ccc(N3CCN(C)CC3)cc2)c1
IC50 [1]: 9 nM | IC50 [2]: 410 nM

CS(=O)(=O)c1ccc(-n2cc(-c3ccc(O)cc3)cn2)cc1
IC50 [1]: 520 nM

CN1CCN(c2ccc(-n3cc(-c4ccncc4OC[C@H]4CC[C@H](N)CC4)cn3)cc2)CC1
IC50 [3]: 1200 nM | IC50 [1]: 1 nM | IC50 [4]: 60 nM | IC50 [2]: 57 nM

CN1CCN(c2ccc(-n3cc(-c4ccncc4OC4CCNCC4)cn3)cc2)CC1
IC50 [1]: 6 nM | IC50 [2]: 260 nM

Fc1ccccc1-n1cc(-c2ccncc2OCC2CCNCC2)cn1
IC50 [1]: 13 nM

O=C(NCc1ccccn1)c1ccc(-n2cc(-c3ccncc3)cn2)cc1
IC50 [5]: < 5000 nM | IC50 [1]: 180 nM | IC50 [6]: < 5000 nM | IC50 [2]: 18800 nM | IC50 [7]: < 5000 nM

CN1CCN(c2ccc(-n3cc(-c4ccncc4OC4CCCCC4)cn3)cc2)CC1
IC50 [1]: 4 nM | IC50 [2]: 150 nM

CN1CCN(c2ccc(-c3cc(-c4ccccc4)n[nH]3)cc2)CC1
IC50 [1]: 670 nM

CN1CCN(c2ccc(-n3cc(-c4ccncc4)cn3)cc2)CC1
IC50 [1]: 80 nM | IC50 [2]: 5000 nM

COc1cnccc1-c1cnn(-c2ccc(N3CCN(C)CC3)cc2)c1
IC50 [1]: 64 nM

CN1CCN(c2ccc(-n3cc(-c4ccncc4OCC4CCNCC4)cn3)cc2)CC1
AUC(0-t) at 7 h [8]: 0.23 µM·h | IC50 [9]: 180 nM | clearance [10]: 114 mL/min/kg | IC50 [3]: 3680 nM | IC50 [1]: 2 nM | Vd [11]: 40.8 L/kg | Cmax [12]: 6560 nM | IC50 [13]: 190 nM | Drug uptake [14]: Active | half-life [15]: 1 min | AUC(0-t) at 7 h [16]: 0.0832 µM·h | Stability [17]: Stable | Drug uptake [18]: Active | Papp A→B [19]: 14 ×10⁻⁶ cm/s | IC50 [20]: > 10000 nM | IC50 [4]: 110 nM | solubility [21]: 220 µg/mL (≈ 509 µM) | AUC(0-t) at 7 h [22]: 18.9 µM·h | IC50 [23]: 2 nM | Tmax [24]: 24 min | IC50 [25]: 5 nM | Cmax [26]: 34 nM | IC50 [2]: 140 nM | IC50 [27]: 420 nM | hepatic extraction ratio [28]: 0.75 | bioavailability [29]: 3.6% | Tmax [30]: 30 min

CN1CCN(c2ccc(-n3cc(-c4ccncc4F)cn3)cc2)CC1
IC50 [1]: 70 nM | IC50 [2]: 5000 nM

CN1CCN(c2ccc(-n3cc(-c4ccncc4OCc4ccncc4)cn3)cc2)CC1
IC50 [1]: 25 nM | IC50 [2]: 1440 nM

c1cc(-c2cnn(-c3ccc(N4CCOCC4)cc3)c2)c(OCC2CCNCC2)cn1
IC50 [1]: 6 nM | IC50 [2]: 210 nM

CS(=O)(=O)c1ccc(-n2cc(-c3ccccc3)cn2)cc1
IC50 [1]: > 20000 nM

Fc1cc(N2CCOCC2)ccc1-n1cc(-c2ccncc2OCC2CCNCC2)cn1
IC50 [1]: 0.3 nM

CS(=O)(=O)c1ccc(-n2cc(-c3ccncc3)cn2)cc1
IC50 [1]: 400 nM

c1ccc(-n2cc(-c3ccncc3OCC3CCNCC3)cn2)cc1
Tmax [31]: 102 min | IC50 [1]: 36 nM | AUC(0-t) at 7 h [32]: 3.44 µM·h | Cmax [33]: 1030 nM | bioavailability [34]: 43%
